The assay relates to E. coli strain 25922. Put plainly: Efficacy Study of E. coli Strain 25922 (coupon touch transfer to TSA plate). In kind it is cell-based. To be noted: 60 s contact time, Rep 1 and 2. How it is done: On a coupon, 0.05 mL of the inocula (E. coli strain 25922) was added to the center of each test coupon and left to dry. Using a sterile glove, 0.05 grams of the test lotion was mechanically rubbed onto the test coupon to mimic rubbing hand sanitizer onto the skin of hands. There was a contact time of either 60 seconds or 4 hours allowed to lapse prior to placing the coupon touch transfer to the trypticase soy agar (TSA) plate. The coupon was then placed onto the TSA plate and allowed contact for 15 seconds in 3 different locations. The plates were then incubated for 24 hours at 37° C.

[1] abbreviates: 0.05 grams lotion on inoculated coupon, TNTC = Too Numerous to Count.

`CC(C)O` [Control 17, isopropyl alcohol]: under setting [1], the “Placement 1/CFU” value is 0 CFU, the “Placement 2/CFU” value was determined as 0 CFU and the “Placement 3/CFU” value was determined as 0 CFU. Where the note is “Criteria ~5 Log Reduction in 60 sec.”, the “Log Reduction” value is given as 6 Log.

These data come from patent publication US11484483B2, “Topical lotion having sanitizing properties” (Shear Kershman Laboratories, Inc, priority 2020, dated 2022).
